Measured values: patent publication US6803233B2, “Model for Alzheimer's disease and other neurodegenerative diseases” (priority 2000, dated 2004)

Tests used:
tangle-like formations = experiment: Electron microscopic immunogold analysis of cultured slices; type: cell-based, mouse; details: ZPAD 6 days
Description: Lowicryl resin-embedded ultrathin sections (of 70-80 nm thickness) were picked up on either pioloform-coated nickel slot grids or pioloform-coated 400 mesh nickel grids. The grids were incubated on drops of blocking solution, followed by incubation on drops of primary antibodies (AT8 or PHF-1). After the incubation with primary antibodies, the sections were washed in TBS (three times for 10 min each) and in 50 mM Tris-HCl, pH 7.4, containing 0.9% NaCl (“TBS*”; once for 10 min; TBS* has 50 mM Tris-HCl and 0.9% NaCl without KCl, while TBS has 25 mM Tris-HCl and KCl) ) and incubated on drops of goat anti-mouse IgG coupled to 10 nm gold particles (British BioCell Int.). The secondary antibodies were diluted 1:100 in TBS* containing 0.05% polyethylene glycol 20000 (BDH; Merck) and 1% gelatin for 2 hr at 28° C. After additional washing in TBS* (three times for 10 min each) and PBS (once for 10 min), the sections were post-fixed in 2% glutaraldehyde in PBS for 2 min at room temperature and then washed in bidistilled water (three times for 10 min each). Finally, the sections were contrasted with saturated aqueous uranyl acetate followed by staining with lead citrate. […]

basophilic granules = experiment: Semithin section histology (toluidine blue) of cultured mouse hippocampal slices; type: cell-based; details: 20 μM ZPAD, six days; wild-type and apoE-deficient slices
Description: To prepare semithin sections, control and treated slices from both wild-type and apoE-deficient mice were fixed in a solution of 0.1M phosphate buffer (“PB”; pH 7.2), containing 1.5% paraformaldehyde and 1.5% glutaraldehyde. After a period of two to three hours, the solution was removed and the slices were rinsed three times in phosphate buffered saline (“PBS”; 50 mM phosphate buffer, 0.9% NaCl, pH 7.3). At this time, slices were postfixed in 2% osmium tetroxide in PB for one hour, dehydrated in a series of alcohols and embedded in Polybed-812. Semithin (1 μm thick) sections were cut on a Sorvall Porter-Blum ultramicrotome and stained with a solution of 0.1% toluidine blue. Digitized images were imported using a Sony DKC-5000 camera attached to a Zeiss microscope and processed using Adobe Photoshop™.

IL-10 = experiment: RT-PCR/northern blot of cytokine mRNA in cultured hippocampal slices; type: cell-based; details: ZPAD 20 μM, mevastatin 20 μM

Substance: N-CBZ-L-phenylalanyl-L-alanine-diazomethyl-ketone [ZPAD]
- ultrastructure: intracellular inclusions (tangle-like formations): Numerous intracellular inclusions
- number of basophilic granules (lysosomes) (basophilic granules): increase in the number of basophilic granules
- mRNA levels of IL-10 (IL-10): increases
